Experimental data taken from ChEMBL document CHEMBL4828736, “Discovery of ASTX029, A Clinical Candidate Which Modulates the Phosphorylation and Catalytic Activity of ERK1/2” (J Med Chem, 2021).

Test system: not listed separately
Experiment: physchem
Details: buffer, pH 7.4

Row | chromatographic logD | SMILES
1 | 3.9 | Cc1cccc([C@@H](CO)NC(=O)[C@@H](C)N2Cc3ccc(-c4nc(NC5CCOCC5)ncc4Cl)cc3C2=O)c1
2 | 3 | Cc1cccc([C@@H](CO)NC(=O)CN2Cc3ccc(-c4nc(NC5CCOCC5)ncc4Cl)cc3C2=O)c1
3 | 3.7 | COc1cc(F)cc([C@@H](CO)NC(=O)[C@@H](C)N2Cc3ccc(-c4nc(Nc5cnn(C)n5)ncc4Cl)cc3C2=O)c1

Test system: not listed separately
Experiment: in vitro
Details: human, microsomes

Row | half-life at 40 min, 1 µM [min] | SMILES
4 | 12 | Cc1cccc([C@@H](CO)NC(=O)[C@@H](C)N2Cc3ccc(-c4nc(NC5CCOCC5)ncc4Cl)cc3C2=O)c1
5 | 40 | Cc1cccc([C@@H](CO)NC(=O)CN2Cc3ccc(-c4nc(NC5CCOCC5)ncc4Cl)cc3C2=O)c1
6 | 26 | COc1cc(F)cc([C@@H](CO)NC(=O)[C@@H](C)N2Cc3ccc(-c4nc(Nc5cnn(C)n5)ncc4Cl)cc3C2=O)c1

Test system: not listed separately
Experiment: in vivo
Details: BALB/c, mouse, po, 5 mg/kg

Row | bioavailability at 24 h [%] | SMILES
7 | 41 | Cc1cccc([C@@H](CO)NC(=O)CN2Cc3ccc(-c4nc(NC5CCOCC5)ncc4Cl)cc3C2=O)c1
8 | 64 | COc1cc(F)cc([C@@H](CO)NC(=O)[C@@H](C)N2Cc3ccc(-c4nc(Nc5cnn(C)n5)ncc4Cl)cc3C2=O)c1

Biological target: CYP3A4 (Homo sapiens, UniProt P08684)
Sequence (P08684 whole entry): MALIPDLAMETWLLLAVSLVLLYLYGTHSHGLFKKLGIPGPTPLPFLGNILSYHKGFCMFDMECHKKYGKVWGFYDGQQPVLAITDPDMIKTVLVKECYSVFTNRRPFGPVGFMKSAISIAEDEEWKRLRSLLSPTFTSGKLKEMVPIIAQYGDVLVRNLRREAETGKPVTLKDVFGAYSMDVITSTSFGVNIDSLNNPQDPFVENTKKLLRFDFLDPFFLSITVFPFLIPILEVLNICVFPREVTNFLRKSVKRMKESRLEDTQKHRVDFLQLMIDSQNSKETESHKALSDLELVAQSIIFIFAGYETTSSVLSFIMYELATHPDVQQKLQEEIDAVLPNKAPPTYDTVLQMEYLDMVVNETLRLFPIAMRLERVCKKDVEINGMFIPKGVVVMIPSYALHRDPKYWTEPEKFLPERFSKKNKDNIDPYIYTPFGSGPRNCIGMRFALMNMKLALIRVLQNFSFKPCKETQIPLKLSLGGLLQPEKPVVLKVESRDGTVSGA
Experiment: in vitro
Details: recombinant enzyme

Row | half-life at 40 min, 1 µM [min] | SMILES
9 | 19 | COc1cc(F)cc([C@@H](CO)NC(=O)[C@@H](C)N2Cc3ccc(-c4nc(Nc5cnn(C)n5)ncc4Cl)cc3C2=O)c1

Test system: not listed separately
Experiment: in vivo
Details: BALB/c, mouse, po, 5 mg/kg
Remark: another data set of the same source

Row | half-life at 24 h [min] | SMILES
10 | 150 | Cc1cccc([C@@H](CO)NC(=O)CN2Cc3ccc(-c4nc(NC5CCOCC5)ncc4Cl)cc3C2=O)c1
11 | 90 | COc1cc(F)cc([C@@H](CO)NC(=O)[C@@H](C)N2Cc3ccc(-c4nc(Nc5cnn(C)n5)ncc4Cl)cc3C2=O)c1

Test system: not listed separately
Experiment: in vivo
Details: BALB/c, mouse, iv, 0.5 mg/kg

Row | Vd at 24 h [L/kg] | SMILES
12 | 0.55 | Cc1cccc([C@@H](CO)NC(=O)CN2Cc3ccc(-c4nc(NC5CCOCC5)ncc4Cl)cc3C2=O)c1
13 | 0.46 | COc1cc(F)cc([C@@H](CO)NC(=O)[C@@H](C)N2Cc3ccc(-c4nc(Nc5cnn(C)n5)ncc4Cl)cc3C2=O)c1

Test system: not listed separately
Experiment: in vitro
Details: CD1, mouse, microsomes

Row | half-life at 40 min, 1 µM [min] | SMILES
14 | 31 | Cc1cccc([C@@H](CO)NC(=O)[C@@H](C)N2Cc3ccc(-c4nc(NC5CCOCC5)ncc4Cl)cc3C2=O)c1
15 | 65 | Cc1cccc([C@@H](CO)NC(=O)CN2Cc3ccc(-c4nc(NC5CCOCC5)ncc4Cl)cc3C2=O)c1
16 | 26 | COc1cc(F)cc([C@@H](CO)NC(=O)[C@@H](C)N2Cc3ccc(-c4nc(Nc5cnn(C)n5)ncc4Cl)cc3C2=O)c1

Test system: COLO 205
Experiment: cells
Type: functional, cell-based
Details: Homo sapiens, COLO 205, 96 h

Row | IC50 [nM] | SMILES
17 | 15 | COc1cc(F)cc([C@@H](CO)NC(=O)[C@@H](C)N2Cc3ccc(-c4nc(Nc5cnn(C)n5)ncc4Cl)cc3C2=O)c1

Test system: not listed separately
Experiment: in vivo
Details: BALB/c, mouse, po, 5 mg/kg
Remark: another data set of the same source

Row | AUC at 24 h [ng·h/mL] | SMILES
18 | 3000 | Cc1cccc([C@@H](CO)NC(=O)CN2Cc3ccc(-c4nc(NC5CCOCC5)ncc4Cl)cc3C2=O)c1
19 | 6400 | COc1cc(F)cc([C@@H](CO)NC(=O)[C@@H](C)N2Cc3ccc(-c4nc(Nc5cnn(C)n5)ncc4Cl)cc3C2=O)c1

Test system: not listed separately
Experiment: in vivo
Details: BALB/c, mouse, iv, 0.5 mg/kg
Remark: another data set of the same source

Row | clearance at 24 h [mL/min/kg] | SMILES
20 | 11 | Cc1cccc([C@@H](CO)NC(=O)CN2Cc3ccc(-c4nc(NC5CCOCC5)ncc4Cl)cc3C2=O)c1
21 | 8.3 | COc1cc(F)cc([C@@H](CO)NC(=O)[C@@H](C)N2Cc3ccc(-c4nc(Nc5cnn(C)n5)ncc4Cl)cc3C2=O)c1
